Data reported in patent US20050152967A1, “Dynamic variable release” (PFab, LP, priority 2003, published 2005).

Tests used:
[1] = water and alcohol; cited from earlier work
[2] = accelerated stability of capsules (dissolution and assay over time); format: physicochemical
Description: The material was placed on accelerated stability.
Stability: Capsules were studied for stability.

[3] = in vitro dissolution (acid/base dissolution bath, USP apparatus, HPLC); format: physicochemical
Description: The amount of active dissolution over time, e.g., guaifenesin and/or phenylephrine in the tablets or capsules disclosed herein below may be tested as follows. Briefly, in vitro guaifenesin or phenylephrine release may be determined using an acid/base dissolution bath, e.g., a standard USP 23/NF Drug Release Apparatus. Dissolution vessels of a USP calibrated dissolution bath, equipped with shafts and paddles, are filled with 675 ml of 0.1N hydrochloric acid at 37.0 degrees Centigrade. The bath and vessels are maintained at a temperature of 37.0±0.5 degrees Centigrade throughout a standard 7 hour dissolution test. […] One tablet or capsule is dropped into each vessel.
At the testing intervals, e.g., 1 minute, 10, 10, 30, 45, 60 or 90 minutes, 2, 3, 4, 6, 7, 9 or 12 hour testing intervals, an aliquot, e.g., 5 mls of dissolution solution is withdrawn from each vessel, filtered (e.g., through a 10-22 micron polyethylene filter) and tested using an HPLC. To stop the dissolution a strong base may be added to the sample, e.g., 0.2M sodium phosphate tribasic to increase the pH of the solution to about 6.8. The percent dissolution is determined using HPLC.

Row | SMILES | solubility [1] | potency on accelerated stability [2] | released immediately ([2]; capsules on accelerated stability) [%] | release profile for gauifenesin ([3]; sustain releasing both actives) | release profile ([2]; capsules on accelerated stability, month to month) | release of phenylephrine ([3]; phenylephrine overcoated with immediate release gauifenesin) | dissolution rate of phenylephrine ([3]; when combined with Gauifenesin DC)
1 | COc1ccccc1OCC(O)CO (stereo not shown) [Guaifenesin, 3(2-methoxyphenoxy)-1,2-propanediol] | soluble in water and alcohol | stable potency | 100 | poor release profile |  |  | 
2 | CNC[C@@H](O)c1cccc(O)c1.Cl [Phenylephrine hydrochloride, (S)-3-hydroxy-α[(methylamino)methyl]benzenemethanol hydrochloride] |  |  |  |  | first order release profile consistent with an 8 hour product | slowed the release of the phenylephrine to an unacceptable level | accelerated
